Measurements taken from paper PMC6478823, “A suite of phenotypic assays to ensure pipeline diversity when prioritizing drug-like Cryptosporidium growth inhibitors” (Nature Communications, 2019).
Like-named read-outs stand apart in the source and are kept apart here.

Tests used:
[1] = test system: C. parvum; experiment: 48 h Cryptosporidium growth inhibition assay; assay type: cell-based, Cryptosporidium parvum; details: compound added 3 h post-infection, read at 48 h
Excerpt: As a first step in developing specific Cryptosporidium mode of action assays, we conducted a series of light microscopy time-lapse and transmission electron microscopy (TEM) time course experiments in order to precisely define C. parvum development within the HCT-8 cell culture system. […] This synchronicity was exploited by modifying a previously developed high-content microscopy assay. These assay modifications enabled the evaluation of several key events within the life cycle: host cell invasion, intracellular replication, host cell egress and establishment of new parasitophorous vacuoles, and sexual differentiation. […] Since the methods all used automated liquid handling, imaging, and image analysis, the assay methods all incorporated nuclear staining to monitor host cell numbers and enable recognition of HCT-8 cell monolayer damage, for example as an artifact from a malfunctioning plate washer or from unanticipated cytotoxicity of the compounds.
Human ileocecal adenocarcinoma (HCT-8) cells were purchased from ATCC (catalog# CCL-244) and cultured in ATCC modified RPMI-1640 medium (Gibco, catalog# A10491–01), supplemented with 10% heat-inactivated fetal bovine serum (Sigma-Aldrich, catalog# 12306C) and 120 U/mL penicillin and 120 μg/mL streptomycin (Gibco, catalog# 15140-122) (culture media). […] For all experiments, HCT-8 cells between passages 9 and 39 were used. C. parvum (Iowa isolate) oocysts were purchased from Bunchgrass Farm (Deary, ID), stored at 4 °C and used within 5 months of collection from an infected calf. To induce excystation, oocysts were first treated with 10 mM hydrochloric acid for 10 min at 37 °C, spun at 14,000×g for 4.5 min at room temperature, treated with 2 mM sodium taurocholate for 10 min at 16 °C, spun as before, and resuspended in culture media for infection.
A modification of a previously reported immunofluorescence assay was used to determine the EC50 and EC90 of compounds[13]. HCT-8 cells were grown to ≥ 90% confluence in 384-well plates (Corning, catalog# 353962) and infected with 5500 oocysts per well after they were induced for excystation as described above. Different concentrations of compounds were added 3 h post-infection and plates were incubated for another 45 h in a 5% CO2 incubator at 37 °C. Wells were then washed 3 times with PBS containing 111 mM D-galactose (PBS-D-gal), fixed with 4% paraformaldehyde (PFA) in PBS for 15 min at room temperature, permeabilized with 0.25% Triton X-100 for 10 min at 37 °C, washed 3 times with PBS with 0.1% Tween 20, and blocked with 4% bovine serum albumin (BSA) in PBS for 2 h at 37 °C or 4 °C overnight. Parasitophorous vacuoles were stained with 1.33 µg/mL of fluorescein-labeled Vicia villosa lectin (Vector Laboratories, catalog# FL-1231) diluted in 1% BSA in PBS with 0.1% Tween 20 for 1 h at 37 °C, followed by addition of Hoechst 33258 (AnaSpec, catalog# AS-83219) at 0.09 mM diluted in water for another 15 min at 37 °C. Wells were then washed 5 times with PBS containing 0.1% Tween 20. A Nikon Eclipse Ti2000 epifluorescence microscope with an automated stage was programmed using NIS-Elements Advanced Research software (Nikon, USA) to focus on the center of each well and take a 3 × 3 or 6 × 6 composite image using an EXi blue fluorescence microscopy camera (QImaging, Canada) with a 20 × objective (NA = 0.45). Nuclei and parasite images were separately exported as.tif files and analyzed using macros developed on the ImageJ platform (National Institutes of Health)[13].

[2] = test system: C. parvum DMC1 expression; experiment: Sexual differentiation assay (DMC1 expression); assay type: cell-based, Cryptosporidium parvum; details: compound at asexual EC90, 48-72 h; for Asexual to sexual differentiation: Mean % DMC1 inhibition (normalized to host nuclei), Average: average of replicates; for Asexual to sexual differentiation: Mean % DMC1 inhibition (normalized to host nuclei), Replicate 1a: single replicate 1; for Asexual to sexual differentiation: Mean % DMC1 inhibition (normalized to host nuclei), Replicate 2a: single replicate 2; for Asexual to sexual differentiation: Mean % DMC1 inhibition (normalized to host nuclei), Replicate 3a: single replicate 3
Excerpt: We utilized DMC1 as a marker of C. parvum sexual development, and used the anti-DMC1 monoclonal antibody to develop a moderate-throughput high-content microscopy assay for characterizing anticryptosporidial compounds (Fig. 6a). […] Therefore, in order to enable numerical comparison of the ability of compounds to block sexual development with moderate throughput, we adopted a strategy of reporting the percent inhibition of DMC1 expression by the previously determined EC90 of each compound in the standard asexual development assay (Fig. 6c and Supplementary Table 2).
Fig. 6 Assay to measure asexual-to-sexual-stage conversion. a Schematic of the experimental approach. […] For b and c the mean and SD combined from at least two biological replicates with four technical replicates per experiment are shown. […] At given time points post-infection, infected cells were washed 3 times with PBS containing 111 mM of D-galactose, fixed for 15 min at room temperature with 4% paraformaldehyde in PBS, and permeabilized with 0.25% triton X-100 in PBS for 10 min at 37 °C. Cells were then washed 3 times with PBS and blocked at least overnight at 4 °C with 1% BSA in PBS (blocking buffer). Cells were stained with monoclonal antibody (1H10G7), either neat culture supernatant or 12.8 µg/mL of purified IgG in blocking buffer for 1 h at 37 °C, followed by 2 washes with PBS. Cells were then co-stained with a 1:500 dilution (4 µg/mL) of Alexa Fluor 568 goat anti-mouse IgG (Invitrogen, catalog# A-11004) and 1.33 µg/mL fluorescein-labeled Vicia villosa lectin (Vector Laboratories, catalog# FL-1231) diluted in blocking buffer for 1 h at 37 °C. Stains were then removed and 0.09 mM Hoechst 33258 (AnaSpec, catalog# AS-83219) also diluted in blocking buffer was added for another 15 min at 37 °C, followed by 2 PBS washes and imaging on a Nikon Eclipse Ti2000 epifluorescence microscope run with NIS-Elements Advanced Research software (Nikon, USA) and equipped with an EXi blue fluorescent microscopy camera (QImaging, Canada). For enumerating parasites, tiled 2 × 2 images with 15% overlapping edges were taken using a 40 × dry objective (0.7 NA), and for finer details, Z stack images were acquired using a 60 × oil objective (1.4 NA). Lectin positive cells in focus were first counted, followed by DMC1.
For compound dose-response studies, the same assay was performed in 384-well plates and imaged using a 20 × dry objective (NA = 0.45). Tiled 4 × 4 to 6 × 6 images were taken. Images were analyzed using ImageJ software and the custom macro provided in Supplementary Method 2.

[3] = test system: C. parvum; experiment: Egress, motility, reinvasion assay (PV ratio); details: compound at EC90; for Egress and Reinvasion Assay: Mean PV ratios (19.5h:6h), Average: average of replicates; for Egress and Reinvasion Assay: Mean PV ratios (19.5h:6h), Replicate 1a: single replicate 1; for Egress and Reinvasion Assay: Mean PV ratios (19.5h:6h), Replicate 2a: single replicate 2; for Egress and Reinvasion Assay: Mean PV ratios (19.5h:6h), Replicate 3a: single replicate 3; for Egress and Reinvasion Assay: Mean PV ratios (19.5h:6h), Replicate 4a: single replicate 4
Method: For quantification of parasitophorous vacuoles over time, HCT-8 cells were grown to greater than 90% confluence in 384-well plates and infected with 11,000 oocysts after triggering excystation.

[4] = read-out: Regular 3 to 48 h assay in vitro EC90, C. parvum in HCT-8 cells
[5] = Cryptosporidium parvum, HCT-8, read-out: Regular 3 to 48 h assay in vitro EC90, C. parvum in HCT-8 cells

Row | Compound | EC90 [1, 4] [µM] | Asexual to sexual differentiation: Mean % DMC1 inhibition (normalized to host nuclei), Average [2] [%] | Asexual to sexual differentiation: Mean % DMC1 inhibition (normalized to host nuclei), Replicate 1a [2] [%] | Asexual to sexual differentiation: Mean % DMC1 inhibition (normalized to host nuclei), Replicate 2a [2] [%] | Asexual to sexual differentiation: Mean % DMC1 inhibition (normalized to host nuclei), Replicate 3a [2] [%] | Asexual to sexual differentiation: Mean % DMC1 inhibition (normalized to host nuclei), Replicate 4a ([2]; single replicate 4) [%] | Egress and Reinvasion Assay: Mean PV ratios (19.5h:6h), Average [3] | Egress and Reinvasion Assay: Mean PV ratios (19.5h:6h), Replicate 1a [3] | Egress and Reinvasion Assay: Mean PV ratios (19.5h:6h), Replicate 2a [3] | Egress and Reinvasion Assay: Mean PV ratios (19.5h:6h), Replicate 3a [3] | Egress and Reinvasion Assay: Mean PV ratios (19.5h:6h), Replicate 4a [3] | Egress and Reinvasion Assay: Mean PV ratios (19.5h:6h), Replicate 5a ([3]; single replicate 5) | EC90 [1, 5] [µM]
1 | COc1ccc(NC(=O)N2CCCCN3C(CN(C)C)C(c4ccc(C#Cc5ccccc5)cc4)C3C2)cc1 (stereo not shown) [BRD7929] | 0.15 | 63.11 | 38.81 | 78.93 | 84.43 | 50.27 | 0.72 | 0.46 | 0.99 | 0.98 | 0.41 | 0.78 | –
2 | CC(C)/N=c1\cc2n(-c3ccc(Cl)cc3)c3ccccc3nc-2cc1Nc1ccc(Cl)cc1 [Clofazimine] | – | 89.18 | 91.44 | 86.93 | – | – | 0.77 | 1.03 | 1.03 | 0.51 | 0.49 | – | 19.6
3 | O=C(NC(c1ccccc1)c1ccc2cccnc2c1O)c1ccccc1 (stereo not shown) [A-5] | 4.35 | 65.35 | 63.04 | 67.67 | – | – | 0.32 | 0.55 | 0.10 | – | – | – | –
4 | CC(C)c1c(C(=O)Nc2ccccc2)c(-c2ccccc2)c(-c2ccc(F)cc2)n1CC[C@@H](O)C[C@@H](O)CC(=O)O [Atorvastatin] | – | 36.34 | 55.77 | 16.91 | – | – | 1.88 | 1.94 | 1.82 | – | – | – | 2.18
5 | COc1ccc(Nc2nc(NCc3ccccc3Cl)c3ccccc3n2)cc1Cl [B-13] | 1.39 | 11.26 | 30.33 | -7.82 | – | – | 1.42 | 1.37 | 1.48 | – | – | – | –
6 | CCC(C)n1ncn(-c2ccc(N3CCN(c4ccc(OCC5COC(Cn6cncn6)(c6ccc(Cl)cc6Cl)O5)cc4)CC3)cc2)c1=O (stereo not shown) [Itraconazole] | – | 63.93 | 87.85 | 40.00 | – | – | 1.77 | 2.21 | 1.33 | – | – | – | 7.24
7 | c1ccc(CNc2nc(NCc3ccccc3)c3ccccc3n2)cc1 [B-23] | 10.8 | -6.40 | -17.01 | 2.19 | -4.38 | – | 1.55 | 1.73 | 1.36 | – | – | – | –
8 | Cc1cccc(-n2ncc3c(O)nc(-n4nc(C)cc4NC(=O)c4cc5ccccc5o4)nc32)c1 [C-1] | 0.65 | 30.35 | 26.21 | 37.12 | 27.73 | – | 0.80 | 0.80 | 1.08 | 0.56 | 0.76 | – | –
9 | CC(=NOCCN)c1cccc(C(C)(C)NC(=O)Nc2ccc(Cl)c(C(F)(F)F)c2)c1 [P257] | 34.3 | 70.52 | 67.08 | 73.96 | – | – | 0.84 | 1.06 | 0.97 | 0.68 | 0.65 | – | –
